From patent publication US20250129012A1, “ANTI-INFLAMMATORY AND ANALGESIC COMPOUNDS AND USE THEREOF” (JIANGSU ATOM BIOSCIENCE AND PHARMACEUTICAL CO., LTD., priority 2021, published 2025)
Like-named read-outs stand apart in the source and are kept apart here. Marks after values point to notes of the source that are not given here.

Assays:
[1] = system: gouty arthritis in rats (urate crystals, left ankle joint); test: Pharmacodynamics experiment A on gouty arthritis in rats: gait score; format: in vivo, SD rats; design: Gait Score: scale not given here; conditions: 0.6 mg/kg gavage; for Gait versus model group, in words: time points after modeling, P<0.05 or P<0.01; for Gait Score: Mean ± SEM
Procedure: (§1) Compounds 2, 17, 26 and 27 were prepared by grinding with 0.5% CMC-Na into a suspension of the corresponding concentration (0.06 mg/mL) for gavage before administration, and the volume of administration was 10 mL/kg. […] Before use, 0.5% CMC-Na was used for grinding and prepared into a suspension of the corresponding concentration (0.06 mg/mL) for gavage, and the volume of drug administered was 10 mL/kg.
(§2) Each group of subjects was prepared into a suspension of the corresponding concentration, and the administration volume was 10 mL/kg.
(§3) The crystalline arthritis model was prepared by intra-articular injection of urate crystals (40 mg/mL, in the left ankle joint of each rat). Different doses of the test drug were given separately by gavage administration. The day of administration was defined as day 1 of the experiment, and the drug was administered once a day for 10 consecutive days (pre-administration of the drug for 7 days prior to modeling, modeling on day 8, and continuation of the drug for 3 days). The experiment ended on day 10.
The degree of lameness of the modeled joints was observed and scored at the same time point.
(§4) The data obtained from the experiment were statistically analyzed using IBM SPSS Statistics 22.0. All measurements were expressed as Mean±S.E.M s. The data were analyzed using SPSS 22.0 statistical software and variance chi-square test was performed on the parameters.

[2] = system: gouty arthritis in rats (urate crystals, left ankle joint); test: Pharmacodynamics experiment A on gouty arthritis in rats: paw volume; format: in vivo, SD rats; conditions: for Paw volume versus model group, in words: time points after modeling; for Paw volume: Mean ± SEM
Procedure: as §1, §2, §3
Paw volume was measured before administration, before urate injection, and 2, 4, 8, 10, 24, and 48 h after injection.
as §4

[3] = system: gouty arthritis in rats (urate crystals, left ankle joint); test: Pharmacodynamics experiment A on gouty arthritis in rats: pain score; format: in vivo, SD rats; design: Pain score: scale not given here; conditions: 0.6 mg/kg gavage; for Pain versus model group, in words: time points after modeling, P<0.05 or P<0.01; for Pain score: Mean ± SEM
Procedure: as §1, §2, §3
The pain level was scored using the flexion and extension joint pain test scoring method at the same time point.
as §4

[4] = In vivo pharmacokinetics in SD rats
Procedure: Compound stock solution preparation: an appropriate amount of solid powder of the compounds were weighed separately, a certain amount of DMSO was added and 20 mg/mL of stock solution was obtained under vortex ultrasound.
Preparation of test compound for gavage: an appropriate amount of compound stock solution was taken by pipette, a certain amount of Solutol HS15 solution was added, the mixture was vortexed for 1 minute, then a certain amount of saline was added, and 1 mg/mL of solution was obtained after mixing well.
Preparation of test compounds for intravenous injection: an appropriate amount of compound stock solution was taken by pipette separately, a certain amount of Solutol HS15 solution was added, the mixture was vortexed for 1 minute, then a certain amount of physiological saline was added and a solution of 0.5 mg/mL was obtained after mixing well.
The animals were fasted overnight before administration by gavage, and food was given 4 hours after administration, during which they were free to drink. Two groups were set for each test compound, intravenous injection group and oral administration group, and the dose and mode of administration were shown in Table 12 below.
The blood samples were centrifuged at 4° C. for 5 min at 2,000 g to separate the plasma. The plasma samples were analyzed by LC/MS/MS to detect the concentration of each test compound in the plasma samples.
The parameters related to the […] were obtained by calculations with WinNonlin® Professional software.

[5] = 2 h after modeling, 0.6 mg/kg gavage
[6] = 4 h after modeling, 0.6 mg/kg gavage
[7] = 8 h after modeling, 0.6 mg/kg gavage
[8] = 10 h after modeling, 0.6 mg/kg gavage
[9] = 24 h after modeling, 0.6 mg/kg gavage
[10] = 48 h after modeling, 0.6 mg/kg gavage
[11] = before modeling, 0.6 mg/kg gavage once a day
[12] = Sprague-Dawley, rat, in vivo, iv, 1 mg/kg
[13] = Sprague-Dawley, rat, in vivo, po, 10 mg/kg

SMILES	Gait versus model group, in words [1]	Gait Score ([1]; 2 h after modeling)	Gait Score ([1]; 4 h after modeling)	Gait Score ([1]; 8 h after modeling)	Gait Score ([1]; 10 h after modeling)	Gait Score ([1]; 24 h after modeling)	Gait Score ([1]; 48 h after modeling)	Gait Score ([1]; before modeling)	Paw volume versus model group, in words ([2]; 0.6 mg/kg gavage)	Paw volume [2, 5]	Paw volume [2, 6]	Paw volume [2, 7]	Paw volume [2, 8]	Paw volume [2, 9] [cm^3]	Paw volume [2, 10]	Paw volume [2, 11] [cm^3]	Pain versus model group, in words [3]	Pain score ([3]; 2 h after modeling)	Pain score ([3]; 4 h after modeling)	Pain score ([3]; 8 h after modeling)	further results
COc1cc2c(c(OC)c1OC)-c1ccc(NS(C)(=O)=O)c(=O)cc1[C@@H](NC(C)=O)CC2 [Compound 2, (S)—N-(1,2,3-trimethoxy-10-methanesulfonylamino-9-oxo-5,6,7,9-tetrahydrobenzo[a]heptalen-7-yl)acetamide]	significantly improved the gait at 2 h, 8 h, 24 h, and 48 h	1.10 ± 0.10	1.10 ± 0.10	1.10 ± 0.10	1.20 ± 0.13	1.00 ± 0.00	1.00 ± 0.00	0.00 ± 0.00	significantly reduce the paw volume at 2 h, 4 h, and 48 h	2.51 ± 0.06* cm^3	2.54 ± 0.04* cm^3	2.63 ± 0.06 cm^3	2.59 ± 0.07 cm^3	2.52 ± 0.08	2.35 ± 0.06* cm^3	2.18 ± 0.02	significantly improved pain at 2 h, 4 h, 8 h, 10 h, 24 h, and 48 h	2.70 ± 0.68	1.30 ± 0.52	3.30 ± 0.54	Pain score ([3]; 10 h after modeling): 2.20 ± 0.68; Pain score ([3]; 24 h after modeling): 1.30 ± 0.62; Pain score ([3]; 48 h after modeling): 1.00 ± 0.67; Pain score ([3]; before modeling): 0.00 ± 0.00
COc1cc2c(c(OC)c1OC)-c1ccc(=O)c(OC3CCOC3)cc1[C@@H](NC(C)=O)CC2 (stereo partly drawn) [Compound 27, (S)—N-(1,2,3-trimethoxy-10-oxo-9-[(tetrahydrofuran-3-yl)oxy]-5,6,7,10-tetrahydrobenzo[a]heptalen-7-yl)acetamide]	significantly improved the gait at 2 h, 24 h, and 48 h	1.00 ± 0.00	1.10 ± 0.10	1.40 ± 0.22	1.20 ± 0.20	1.00 ± 0.00	1.00 ± 0.00	0.00 ± 0.00	significantly reduce the paw volume at 2 h, 4 h, 8 h, 10 h, and 48 h	2.51 ± 0.04** cm^3	2.54 ± 0.03* cm^3	2.57 ± 0.04* cm^3	2.55 ± 0.04* cm^3	2.50 ± 0.07	2.29 ± 0.04** cm^3	2.16 ± 0.04	significantly improved gait at 2 h, 8 h, 10 h, 24 h, and 48 h	2.00 ± 0.67	2.80 ± 0.68	3.30 ± 0.47	Pain score ([3]; 10 h after modeling): 2.50 ± 0.65; Pain score ([3]; 24 h after modeling): 1.50 ± 0.60; Pain score ([3]; 48 h after modeling): 1.00 ± 0.60; Pain score ([3]; before modeling): 0.00 ± 0.00
CNC(=O)c1ccc2c(cc1=O)[C@@H](NC(C)=O)CCc1cc3c(c(OC)c1-2)OCO3 [Compound 125, (S)-6-acetamido-13-methoxy-N-methyl-4-oxo-4,6,7,8-tetrahydroheptalen[1′,2′:4,5]benzo[1,2-d][1,3]dioxolane-3-carboxamide]	–	–	–	–	–	–	–	–	–	–	–	–	–	–	–	–	–	–	–	–	F ([4]; Gavage - 10 mg/kg, calculated by AUCINF): 93.0%; AUC(0-inf) ([4]; Sprague-Dawley, rat, in vivo, po, Gavage - 10 mg/kg, read-out: AUCINF): 5460 ng·h/mL; Cmax ([4]; Sprague-Dawley, rat, in vivo, po, Gavage - 10 mg/kg, read-out: Cmax): 4150 ng/mL; MRT inf ([4]; Sprague-Dawley, rat, in vivo, po, Gavage - 10 mg/kg, read-out: MRTINF): 1.8 h; Tmax ([4]; Sprague-Dawley, rat, in vivo, po, Gavage - 10 mg/kg, read-out: Tmax): 0.25 h; half-life ([4]; Sprague-Dawley, rat, in vivo, po, Gavage - 10 mg/kg, read-out: t1/2 (converted)): 3.33 h; AUC(0-inf) ([4]; Sprague-Dawley, rat, in vivo, Intravenous injection - 1 mg/kg, read-out: AUCINF): 587 ng·h/mL; clearance ([4]; Sprague-Dawley, rat, in vivo, Intravenous injection - 1 mg/kg, read-out: CL (converted)): 28.5 mL/min/kg; MRT inf ([4]; Sprague-Dawley, rat, in vivo, Intravenous injection - 1 mg/kg, read-out: MRTINF): 0.675 h; Vd ([4]; Sprague-Dawley, rat, in vivo, Intravenous injection - 1 mg/kg, read-out: VSS): 1.15 L/kg; half-life ([4]; Sprague-Dawley, rat, in vivo, Intravenous injection - 1 mg/kg, read-out: t1/2 (converted)): 1.19 h
[2H]C([2H])([2H])Oc1c(OC)c(OC)cc2c1-c1ccc(C(=O)NC)c(=O)cc1[C@@H](NC(C)=O)CC2 [Compound 132, (S)-7-acetamido-2,3-dimethoxy-1-trideuteromethoxy-N-methyl-9-oxo-5,6,7,9-tetrahydrobenzo[a]heptalen-10-carboxamide]	–	–	–	–	–	–	–	–	–	–	–	–	–	–	–	–	–	–	–	–	F ([4]; Sprague-Dawley, rat, in vivo, 10 mg/kg): 47.5%; AUC(0-inf) [4, 12]: 702 ng·h/mL; MRT inf [4, 12]: 1.06 h; Vd [4, 12]: 1.39 L/kg; clearance [4, 12]: 24.3 mL/min/kg; half-life [4, 12]: 2.12 h; AUC(0-inf) [4, 13]: 3340 ng·h/mL; Cmax [4, 13]: 1780 ng/mL; MRT inf [4, 13]: 2.1 h; Tmax [4, 13]: 0.25 h; half-life [4, 13]: 1.39 h
